The text below walks through data of patent US20250034216A1, “STEREOSELECTIVE COVALENT LIGANDS FOR ONCOGENIC AND IMMUNOLOGICAL PROTEINS” (The Scripps Research Institute, priority 2021, published 2025).

For one assay, the target named is T1, ABCB8_C461 (Homo sapiens, UniProt Q9NUT2).
T1 construct: endogenous in cells; host or cells: 22Rv1
T1 sequence (Q9NUT2 26-735): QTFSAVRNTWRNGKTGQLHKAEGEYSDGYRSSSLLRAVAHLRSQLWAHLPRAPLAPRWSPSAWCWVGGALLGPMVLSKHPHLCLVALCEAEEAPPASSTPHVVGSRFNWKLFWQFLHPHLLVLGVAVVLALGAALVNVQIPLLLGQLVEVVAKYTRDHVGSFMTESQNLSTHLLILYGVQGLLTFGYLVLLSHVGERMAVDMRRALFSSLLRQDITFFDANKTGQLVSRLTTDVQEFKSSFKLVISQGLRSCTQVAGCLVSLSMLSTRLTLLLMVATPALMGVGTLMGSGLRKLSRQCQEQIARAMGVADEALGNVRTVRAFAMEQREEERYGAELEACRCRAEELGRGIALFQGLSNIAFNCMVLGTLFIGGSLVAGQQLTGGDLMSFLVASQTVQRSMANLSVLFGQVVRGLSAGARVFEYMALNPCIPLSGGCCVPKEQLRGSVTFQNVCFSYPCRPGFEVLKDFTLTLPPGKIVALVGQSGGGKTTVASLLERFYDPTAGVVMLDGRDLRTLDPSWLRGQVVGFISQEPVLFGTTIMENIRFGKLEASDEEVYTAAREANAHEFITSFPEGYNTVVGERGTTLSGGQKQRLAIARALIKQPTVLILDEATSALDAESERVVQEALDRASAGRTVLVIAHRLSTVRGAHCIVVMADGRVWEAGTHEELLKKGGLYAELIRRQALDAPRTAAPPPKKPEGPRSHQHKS
Put plainly: IA-DTB cysteine engagement. The settings on record: 22Rv1 cells, 20 μM probe, 1 h, relative to DMSO. Type of assay: binding. In short, it runs like this:
(§1)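 First, cells are exposed to electrophilic probes in situ. Next, lysates are labeled with IA-DTB (1 h, ambient temperature), reduced, alkylated and trypsin-digested. Then, IA-DTB peptides are enriched on streptavidin, TMT-labeled and analyzed, with ratios taken against DMSO channels.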

In a further assay the target is T2, SPATA2_C41 (Homo sapiens, UniProt Q9UM82).
T2 construct: endogenous in cells; host or cells: 22Rv1
T2 sequence (Q9UM82 1-520): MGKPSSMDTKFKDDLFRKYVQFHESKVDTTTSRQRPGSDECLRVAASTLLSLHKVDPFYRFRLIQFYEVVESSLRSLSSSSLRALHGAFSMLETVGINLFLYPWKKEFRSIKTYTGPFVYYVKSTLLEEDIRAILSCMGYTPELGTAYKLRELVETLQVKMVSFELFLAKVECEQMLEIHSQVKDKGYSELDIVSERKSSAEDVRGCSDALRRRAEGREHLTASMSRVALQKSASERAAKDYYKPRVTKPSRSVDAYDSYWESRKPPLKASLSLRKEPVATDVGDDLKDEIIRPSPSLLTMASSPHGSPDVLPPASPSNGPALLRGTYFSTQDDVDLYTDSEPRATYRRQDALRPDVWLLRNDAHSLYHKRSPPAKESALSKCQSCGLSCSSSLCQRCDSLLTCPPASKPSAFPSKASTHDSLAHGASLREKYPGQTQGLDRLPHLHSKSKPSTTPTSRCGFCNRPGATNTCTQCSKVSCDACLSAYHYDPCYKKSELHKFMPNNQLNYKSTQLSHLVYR
As to the kind of experiment: IA-DTB cysteine engagement. Type of assay: binding. The settings on record: 22Rv1 cells, 20 μM probe, 1 h, relative to DMSO. The procedure, abridged: as §1

In the case of `C=CC(=O)N1C[C@H](c2ccc(Br)cc2)[C@@H]1C(=O)Nc1cccc2cccnc12` [MY-1B, (2R,3S)-1-acryloyl-3-(4-bromophenyl)-N-(quinolin-8-yl)azetidine-2-carboxamide], the “% engagement ABCB8_C461” value at ABCB8_C461 is recorded as 0%. Besides, the “% engagement SPATA2_C41” value at SPATA2_C41 is recorded as 91.75%.

For the compound `C=CC(=O)N1C[C@H](c2ccc(Br)cc2)[C@H]1C(=O)Nc1cccc2cccnc12` [MY-3B, (2S,3S)-1-acryloyl-3-(4-bromophenyl)-N-(quinolin-8-yl)azetidine-2-carboxamide], the “% engagement ABCB8_C461” value on ABCB8_C461 was determined as 66.5%. At SPATA2_C41, the “% engagement SPATA2_C41” value was found to be 29.5%.

With `C=CC(=O)N1C[C@H](c2ccc(Br)cc2)[C@H]1C(=O)Nc1cccc2cccnc12` [MY-3A, (2S,3S)-1-acryloyl-3-(4-bromophenyl)-N-(quinolin-8-yl)azetidine-2-carboxamide], the “% engagement ABCB8_C461” value at ABCB8_C461 came to 32.5%. In addition, the “% engagement SPATA2_C41” value on SPATA2_C41 came out at 24.5%.

Regarding `C=CC(=O)N1C[C@@H](c2ccc(Br)cc2)[C@H]1C(=O)Nc1cccc2cccnc12` [MY-1A, (2S,3R)-1-acryloyl-3-(4-bromophenyl)-N-(quinolin-8-yl)azetidine-2-carboxamide], on ABCB8_C461, the “% engagement ABCB8_C461” value was −3%. The “% engagement SPATA2_C41” value on SPATA2_C41 worked out at 58%.
